pEC50: −log10 of the molar value. Where two headings read alike, the source gives them in different places.
Tests used:
[1] = system: PC-3; experiment: Caspase cascade activation assay (Example 90); assay type: cell-based, human; conditions: for caspase activity (Ratio): 0.16 to 10 µM final, net RFU ratio to control; for pEC50: Homo sapiens
Protocol: (§1) Human breast cancer cell lines T-47D and ZR-75-1, human prostate cancer cell line PC-3, human leukemia cancer cell line HL-60 and human non-transformed fibroblast cell line MRC-5 cells were grown according to media component mixtures designated by The American Type Culture Collection + 10% FCS (Life Technologies, Inc.), in a 5% CO2 -95% humidity incubator at 37° C. T-47D, ZR-75-1 and PC-3 cells were maintained at a cell density between 30 and 80% confluency and for HL-60 at a cell density of 0.1 to 0.6 x 10^6 cells/ml. Cells were harvested at 600xg and resuspended at 0.65 x 10^6 cells/ml into appropriate media + 10% FCS. […] The samples were mixed by agitation and incubated at room temperature.
(§2) The EC50 (nM) was determined by a sigmoidal dose-response calculation (Prism 2.0, GraphPad Software Inc.). Caspase Activity and Potency

[2] = system: T-47D; experiment: Caspase cascade activation assay (Example 90); assay type: cell-based, human; conditions: for caspase activity (Ratio): 0.16 to 10 µM final, net RFU ratio to control; for pEC50: Homo sapiens, T47D
Protocol: as §1, §2

[3] = system: T-47D; experiment: Caspase cascade activation by known antineoplastic compounds (Example 92); conditions: 24 h; for fold induction at 10 µM: Homo sapiens, T47D, read-out: ratio of the net RFU value for test compounds to that of control samples (caspase cascade activation)
Protocol: (§6) The samples were mixed by agitation and then incubated at 37° C for 24 h in a 5% CO2-95% humidity incubator. […] The samples were mixed by agitation and incubated for 3 h at room temperature. […] After the 3 h incubation, the samples were read for fluorescence as above (T = 3 h).
(§7) The Relative Fluorescence Unit values (RFU) were used to calculate the sample readings as follows: RFU(T=3⁢hr) −Control RFU(T=0) = Net RFU(T=3⁢hr) [formula]
(§8) The activity in caspase cascade activation was determined by the ratio of the net RFU value for test compounds to that of control samples.

[4] = system: PC-3; experiment: as above; conditions: for fold induction at 10 µM: Homo sapiens, PC-3, 24 h, read-out: ratio of the net RFU value for test compounds to that of control samples (caspase cascade activation)
Protocol: as §6, §7, §8

[5] = system: HL-60; experiment: Caspase cascade activation assay (Example 90); assay type: cell-based, human; conditions: for caspase activity (Ratio): HL-60, 24 h incubation, 0.16 to 10 µM final, net RFU ratio to control
Protocol: as §1, §2

[6] = system: ZR-75-1; experiment: Caspase cascade activation assay (Example 90); assay type: cell-based, human; conditions: for caspase activity (Ratio): ZR-75-1, 24 h incubation, 0.16 to 10 µM final, net RFU ratio to control
Protocol: as §1, §2

[7] = system: MRC-5; experiment: Caspase cascade activation assay (Example 90); assay type: cell-based, human; conditions: for caspase activity (Ratio): MRC-5 non-transformed fibroblasts, 24 h incubation, 0.16 to 10 µM final, net RFU ratio to control
Protocol: as §1, §2

[8] = system: HL-60; experiment: Inhibition of cell proliferation (GI50) and cell death (LC50), CellTiter 96 (Example 91); assay type: cell-based; conditions: Homo sapiens, HL-60, 48 h
Protocol: (§3) T-47D, ZR-75-1, PC-3, human prostate cancer cell line DU-145, human non-small cell lung cancer cell line A-549, human small cell lung cancer cell line SHP-77, HL-60 and MRC-5 cells were grown and harvested as in Example 90. […] The samples were mixed by agitation and incubated at 37° C for 2-4 h in a 5% CO2-95% humidity incubator. […] This determines the possible background absorbance of the test compounds. No absorbance for gambogic acid or its analogs or derivatives was found at 490 nm. After the 2-4 h incubation, the samples were read for absorbance as above (ATest).
(§4) The samples were mixed by agitation and incubated at 37° C for 2-4 h in a 5% CO2-95% humidity incubator. Absorbance was read as above, (AT=0) defining absorbance for initial cell number used as baseline in GI50 determinations and (Amin) defining absorbance for media alone used as baseline in LC50 determinations.
(§5) GI50 (dose for50%inhibition of cell proliferation) 50 = 100 x [(ATest-AT = 0)/(Amax-AT = 0)] [formula] LC50 (dose for50%cell death) 50 = 100 x [(ATest-Amin)/(AT = 0-Amin)] [formula]

[9] = system: ZR-75-1; experiment: as above; assay type: cell-based; conditions: Homo sapiens, ZR-75-1, 48 h
Protocol: as §3, §4, §5

[10] = system: PC-3; experiment: as above; assay type: cell-based; conditions: Homo sapiens, PC-3, 48 h
Protocol: as §3, §4, §5

[11] = system: T-47D; experiment: as above; assay type: cell-based; conditions: Homo sapiens, T47D, 48 h
Protocol: as §3, §4, §5

[12] = system: SHP-77; experiment: as above; assay type: cell-based; conditions: Homo sapiens, SHP77, 48 h
Protocol: as §3, §4, §5

[13] = system: A-549; experiment: as above; assay type: cell-based; conditions: Homo sapiens, A549, 48 h
Protocol: as §3, §4, §5

[14] = system: DU-145; experiment: as above; assay type: cell-based; conditions: Homo sapiens, DU-145, 48 h
Protocol: as §3, §4, §5

[15] = system: MRC-5; experiment: as above; assay type: cell-based, human
Protocol: as §3, §4, §5

[16] = system: several cancer cell lines; conditions: several cancer cell lines; Cao et al. 1998; cited from earlier work

Compound: COC(=O)/C(C)=C\CC12OC(C)(C)C3CC(C=C4C(=O)c5c(OC)c6c(c(CC=C(C)C)c5OC431)OC(C)(CCC=C(C)C)C=C6)C2=O (stereo not shown) [Example 6, Methyl-6-methoxy-gambogate]
- caspase activity (Ratio) ([1]; PC-3, 24 h incubation): 4.5
- caspase activity (Ratio) ([2]; T-47D, 24 h incubation): 12.0

Compound: CC(=O)O[C@H]1C(=O)[C@@]2(C)[C@H]([C@H](OC(=O)c3ccccc3)[C@]3(O)C[C@H](OC(=O)[C@H](O)[C@@H](NC(=O)c4ccccc4)c4ccccc4)C(C)=C1C3(C)C)[C@]1(OC(C)=O)CO[C@@H]1C[C@@H]2O [Taxol]
- fold induction at 10 µM [3]: 0.9
- fold induction at 10 µM [4]: 0.7

Compound: COC(=O)/C(C)=C\CC12OC(C)(C)C3CC(C=C4C(=O)c5c(O)c6c(c(CC=C(C)C)c5OC431)OC(C)(CCC=C(C)C)C=C6)C2=O (stereo not shown) [Example 4, Methyl Gambogate]
- caspase activity (Ratio) [5]: 7.7
- pEC50 ([5]; Homo sapiens, HL-60, 24 h): 6.47
- pEC50 ([6]; Homo sapiens, ZR-75-1, 24 h): 5.79
- caspase activity (Ratio) [6]: 14.9
- pEC50 ([1]; PC-3, 24 h): 5.88
- caspase activity (Ratio) ([1]; PC-3, 24 h incubation): 3.9
- pEC50 ([2]; 24 h): 6.32
- caspase activity (Ratio) ([2]; T-47D, 24 h incubation): 16.8
- pEC50 ([7]; Homo sapiens, MRC5, 24 h): 6.30
- caspase activity (Ratio) [7]: 27.8
- GI50 [8]: 50 nM
- CC50 ([8]; read-out: LC50): 500 nM
- GI50 [9]: 300 nM
- CC50 ([9]; read-out: LC50): 500 nM
- GI50 [10]: 500 nM
- CC50 ([10]; read-out: LC50): 500 nM
- GI50 [11]: 40 nM
- CC50 ([11]; read-out: LC50): 50 nM
- GI50 [12]: 500 nM
- CC50 ([12]; read-out: LC50): 500 nM
- GI50 [13]: 500 nM
- CC50 ([13]; read-out: LC50): 2000 nM
- GI50 [14]: 500 nM
- CC50 ([14]; read-out: LC50): 500 nM
- GI50 ([15]; Homo sapiens, MRC5, 48 h): 200 nM
- CC50 ([15]; MRC-5 non-transformed fibroblasts, 48 h, dose for 50% cell death): 500 nM

Compound: CN(Cc1cnc2nc(N)nc(N)c2n1)c1ccc(C(=O)N[C@@H](CCC(=O)O)C(=O)O)cc1 [Methotrexate]
- fold induction at 10 µM [3]: 0.8
- fold induction at 10 µM [4]: 0.7

Compound: CC(C)=CCCC1(C)C=Cc2c(O)c3c(c(CC=C(C)C)c2O1)OC12C(=CC4CC1C(C)(C)OC2(C/C=C(/C)C(=O)N1CCCCC1)C4=O)C3=O (stereo not shown) [Example 5, Gambogyl Piperidine]
- caspase activity (Ratio) [5]: 5.2
- caspase activity (Ratio) [6]: 14.3
- caspase activity (Ratio) ([1]; PC-3, 24 h incubation): 2.7
- caspase activity (Ratio) ([2]; T-47D, 24 h incubation): 13.9
- caspase activity (Ratio) [7]: 12.6

Compound: N.N.[Cl][Pt][Cl] [Cisplatin]
- ratio of the net RFU value for test compounds to that of control samples (caspase cascade activation) ([3]; T-47D, 10 µM final, ratio around 1 = not an efficient activator): 1.1
- ratio of the net RFU value for test compounds to that of control samples (caspase cascade activation) ([4]; PC-3, 10 µM final, 24 h, ratio around 1 = not an efficient activator): 0.9

Compound: CC(C)=CCC/C(C)=C/Cc1c(O)c(CC=C(C)C)c2c(c1O)C(=O)C1=CC3CC4C(C)(C)OC(C/C=C(/C)C=O)(C3=O)C14O2 (stereo not shown) [Example 3, Gambogenin]
- pEC50 ([1]; PC-3, caspase activation, 24 h incubation, read-out: EC50): 5.77
- caspase activity (Ratio) ([1]; PC-3, 24 h incubation): 2.9
- pEC50 ([2]; T-47D, caspase activation, 24 h incubation, read-out: EC50): 6.00
- caspase activity (Ratio) ([2]; T-47D, 24 h incubation): 7.0

Compound: CC(C)=CCc1c2c(c(O)c3c1OC14C(=CC5CC1C(C)(C)OC4(C/C=C(/C)C(=O)O)C5=O)C3=O)C=CC(C)(C)O2 (stereo not shown) [Example 19, Morellic Acid]
- cytotoxicity [16]: significant cytotoxicity

Compound: COc1cccc2c1C(=O)c1c(O)c3c(c(O)c1C2=O)C[C@@](O)(C(=O)CO)C[C@@H]3O[C@H]1C[C@H](N)[C@H](O)[C@H](C)O1 [Doxorubicin]
- fold induction at 10 µM [3]: 1.3
- fold induction at 10 µM [4]: 1.1

From EP1180991B1, “GAMBOGIC ACID DERIVATIVES AS ACTIVATORS OF CASPASES AND INDUCERS OF APOPTOSIS” (Cytovia, Inc., priority 1999, dated 2000)
